In patent publication US20230077362A1 (CORTEVA AGRISCIENCE LLC, priority 2019, published 2023):
Read-outs that look alike come from different tables or passages of the source.

Experiments:
Format in all cases: in vivo
[1] = tested on: Green Peach Aphid ("GPA") (Myzus persicae), wingless adult and nymph stages; assay: Bioassay on green peach aphid (GPA), foliar spray on infested cabbage seedlings; details: Myzus persicae, foliar, 72 h
How it was run: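 Cabbage seedlings with 2-3 true leaves, infested one day earlier with 20-50 wingless adult and nymph GPA, sprayed to runoff on both leaf sides; solvent check held 20% acetone/methanol (1:1). Live aphids counted after three days at about 25° C; corrected % control = 100*(X−Y)/X versus solvent check.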

[2] = tested on: Cabbage Looper (Trichoplusia ni) ("CL"), second instar larvae; assay: Bioassay on cabbage looper (CL), 128-well diet tray assay; details: Trichoplusia ni
How it was run: (§1)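 Covered trays were held at 25° C. under a 14:10 light-dark cycle for five to seven days. Percent mortality was then scored in each well, and activity across eight wells was averaged.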

[3] = tested on: Beet Armyworm (Spodoptera exigua) ("BAW"), second instar larvae; assay: Bioassay on beet armyworm (BAW), 128-well diet tray assay; details: Spodoptera exigua
How it was run: as §1

[4] = read-out: GPA (Biological Results, rating)
[5] = read-out: CL (Biological Results, rating)
[6] = read-out: BAW (Biological Results, rating)

| Compound | pest or weed control at 200 µg/mL [1, 4] [%] | pest or weed control at 50 µg/cm2 [2, 5] [%] | pest or weed control at 50 µg/cm2 [3, 6] [%] | pest or weed control at 200 µg/mL ([1]; read-out: GPA rating) [%] | pest or weed control at 50 µg/cm2 ([2]; read-out: CL rating) [%] | pest or weed control at 50 µg/cm2 ([3]; read-out: BAW rating) [%] |
| --- | --- | --- | --- | --- | --- | --- |
| Cc1ccc(OCCC(F)(F)F)c(N2C(=O)CS/C2=N\C(=O)Nc2ccc(-c3ncn(-c4ccc(C#N)cc4)n3)cc2F)c1 [Compound J288, (Z)-1-(4-(1-(4-Cyanophenyl)-1H-1,2,4-triazol-3-yl)-2-fluorophenyl)-3-(3-(5-methyl-2-(3,3,3-trifluoropropoxy)phenyl)-4-oxothiazolidin-2-ylidene)urea] | 0 to 80 | 50 to 100 | 50 to 100 |  |  |  |
| CCOC(C)c1ccc(C)cc1N1C(=O)CS/C1=N\C(=O)Nc1ccc(-c2ncn(-c3ccc(OC(F)(F)F)cc3)n2)cc1C (stereo not drawn) [Compound J141, (Z)-1-(3-(2-(1-Ethoxyethyl)-5-methylphenyl)-4-oxothiazolidin-2-ylidene)-3-(2-methyl-4-(1-(4-(trifluoromethoxy)phenyl)-1H-1,2,4-triazol-3-yl)phenyl)urea] | 0 to 80 | 50 to 100 | 50 to 100 |  |  |  |
| COc1ccc(C(C)C)c(N2C(=O)CS/C2=N\C(=O)Nc2ccc(-c3ncn(-c4ccc(OC(F)(F)F)cc4)n3)cc2F)c1 [Compound J312] | 0 to 80 | 50 to 100 | 50 to 100 |  |  |  |
| COc1ccc(-n2cnc(-c3ccc(NC(=O)/N=C4\SCC(=O)N4c4cc(N(C)C)ccc4C(C)C)c(F)c3)n2)cc1 [Compound J146, (Z)-1-(3-(5-(Dimethylamino)-2-isopropylphenyl)-4-oxothiazolidin-2-ylidene)-3-(2-fluoro-4-(1-(4-methoxyphenyl)-1H-1,2,4-triazol-3-yl)phenyl)urea] | 0 to 80 | 50 to 100 | 50 to 100 |  |  |  |
| Cc1ccc(COCC(F)(F)F)c(N2C(=O)CS/C2=N\C(=O)Nc2ccc(-c3ncn(-c4ccc(S(=O)(=O)C(F)(F)F)cc4)n3)cc2F)c1 [Compound J363, (Z)-1-(2-Fluoro-4-(1-(4-((trifluoromethyl)sulfonyl)phenyl)-1H-1,2,4-triazol-3-yl)phenyl)-3-(3-(5-methyl-2-((2,2,2-trifluoroethoxy)methyl)phenyl)-4-oxothiazolidin-2-ylidene)urea] |  |  |  | 0 to 80 | 50 to 100 | 50 to 100 |
| Cc1ccc(OCC(F)(F)F)c(N2C(=O)CS/C2=N\C(=O)Nc2ccc(-c3ncn(-c4cccc(C(F)(F)F)c4)n3)cc2F)c1 [Compound J122, (Z)-1-(2-Fluoro-4-(1-(3-(trifluoromethyl)phenyl)-1H-1,2,4-triazol-3-yl)phenyl)-3-(3-(5-methyl-2-(2,2,2-trifluoroethoxy)phenyl)-4-oxothiazolidin-2-ylidene)urea] | 0 to 80 | 50 to 100 | 50 to 100 |  |  |  |
| COC(C)c1ccc(C#N)cc1N1C(=O)CS/C1=N\C(=O)Nc1ccc(-c2cn(-c3ccc(S(=O)(=O)C(F)(F)F)cc3)cn2)cc1F (stereo not drawn) [Compound J652, (Z)-1-(3-(5-Cyano-2-(1-methoxyethyl)phenyl)-4-oxothiazolidin-2-ylidene)-3-(2-fluoro-4-(1-(4-((trifluoromethyl)sulfonyl)phenyl)-1H-imidazol-4-yl)phenyl)urea] |  |  |  | 0 to 80 | 50 to 100 | 50 to 100 |
| Cc1ccc(C(C)C)c(N2C(=O)CS/C2=N\C(=O)Nc2ccc(-c3ncn(-c4ccc(OC(F)(F)F)cc4)n3)cc2F)c1 [Compound J19, (Z)-1-(2-Fluoro-4-(1-(4-(trifluoromethoxy)phenyl)-1H-1,2,4-triazol-3-yl)phenyl)-3-(3-(2-isopropyl-5-methylphenyl)-4-oxothiazolidin-2-ylidene)urea] | 0 to 80 | 50 to 100 | 50 to 100 |  |  |  |
| COC(c1ccc(C)cc1N1C(=O)CS/C1=N\C(=O)Nc1ccc(-c2cn(-c3ccc(S(=O)(=O)C(F)(F)F)cc3)cn2)cc1F)C(F)(F)F (stereo not drawn) [Compound J649, (Z)-1-(2-Fluoro-4-(1-(4-((trifluoromethyl)sulfonyl)phenyl)-1H-imidazol-4-yl)phenyl)-3-(3-(5-methyl-2-(2,2,2-trifluoro-1-methoxyethyl)phenyl)-4-oxothiazolidin-2-ylidene)urea] |  |  |  | 0 to 80 | 50 to 100 | 50 to 100 |
| COC(c1ccc(C)cc1N1C(=O)CS/C1=N\C(=O)Nc1ccc(-c2ncn(-c3ccc(SC(F)(F)F)cc3)n2)cc1F)C(F)(F)F (stereo not drawn) [Compound J229, (Z)-1-(2-Fluoro-4-(1-(4-((trifluoromethyl)thio)phenyl)-1H-1,2,4-triazol-3-yl)phenyl)-3-(3-(5-methyl-2-(2,2,2-trifluoro-1-methoxyethyl)phenyl)-4-oxothiazolidin-2-ylidene)urea] | 0 to 80 | 50 to 100 | 50 to 100 |  |  |  |
| Cc1ccc(COCC(F)(F)F)c(N2C(=O)CS/C2=N\C(=O)Nc2ccc(-c3ncn(-c4ccc(OC(F)(F)F)cc4)n3)cc2C)c1 [Compound J139, (Z)-1-(3-(5-Methyl-2-((2,2,2-trifluoroethoxy)methyl)phenyl)-4-oxothiazolidin-2-ylidene)-3-(2-methyl-4-(1-(4-(trifluoromethoxy)phenyl)-1H-1,2,4-triazol-3-yl)phenyl)urea] | 0 to 80 | 50 to 100 | 50 to 100 |  |  |  |
| CC(C)c1cc(F)c(N(C)C)cc1N1C(=O)CS/C1=N\C(=O)Nc1ccc(-c2ncn(-c3ccc(C(F)(F)F)cc3)n2)cc1F [Compound J183, (Z)-1-(3-(5-(Dimethylamino)-4-fluoro-2-isopropylphenyl)-4-oxothiazolidin-2-ylidene)-3-(2-fluoro-4-(1-(4-(trifluoromethyl)phenyl)-1H-1,2,4-triazol-3-yl)phenyl)urea] | 0 to 80 | 50 to 100 | 50 to 100 |  |  |  |
| Cc1ccc(COCC(F)(F)F)c(N2C(=O)CS/C2=N\C(=O)Nc2ccc(-c3ncn(-c4ccc(C(F)F)cc4)n3)cc2F)c1 [Compound J686, (Z)-1-(4-(1-(4-(Difluoromethyl)phenyl)-1H-1,2,4-triazol-3-yl)-2-fluorophenyl)-3-(3-(5-methyl-2-((2,2,2-trifluoroethoxy)methyl)phenyl)-4-oxothiazolidin-2-ylidene)urea] |  |  |  | 0 to 80 | 50 to 100 | 50 to 100 |
| CCCc1ccc(N(C)C)cc1N1C(=O)CS/C1=N\C(=O)Nc1ccc(-c2ncn(-c3ccc(OC(F)(F)F)cc3)n2)cc1F [Compound J196, (Z)-1-(3-(5-(Dimethylamino)-2-propylphenyl)-4-oxothiazolidin-2-ylidene)-3-(2-fluoro-4-(1-(4-(trifluoromethoxy)phenyl)-1H-1,2,4-triazol-3-yl)phenyl)urea] | 0 to 80 | 50 to 100 | 50 to 100 |  |  |  |
| CCCc1ccc(OCC)cc1N1C(=O)CS/C1=N\C(=O)Nc1ccc(-c2ncn(-c3ccc(OC(F)(F)F)cc3)n2)cc1F [Compound J169, (Z)-1-(3-(5-Ethoxy-2-propylphenyl)-4-oxothiazolidin-2-ylidene)-3-(2-fluoro-4-(1-(4-(trifluoromethoxy)phenyl)-1H-1,2,4-triazol-3-yl)phenyl)urea] | 0 to 80 | 50 to 100 | 50 to 100 |  |  |  |
| Cc1ccc(C(C)C)c(N2C(=O)CS/C2=N\C(=O)Nc2ccc(-c3ncn(-c4cccc(OC(F)(F)F)c4)n3)cc2F)c1 [Compound J143, (Z)-1-(2-Fluoro-4-(1-(3-(trifluoromethoxy)phenyl)-1H-1,2,4-triazol-3-yl)phenyl)-3-(3-(2-isopropyl-5-methylphenyl)-4-oxothiazolidin-2-ylidene)urea] | 0 to 80 | 50 to 100 | 50 to 100 |  |  |  |
| Cc1ccc(OCCC(F)(F)F)c(N2C(=O)CS/C2=N\C(=O)Nc2ccc(-c3ncn(-c4cccc(C(F)(F)F)c4)n3)cc2C)c1 [Compound J134, (Z)-1-(3-(5-Methyl-2-(3,3,3-trifluoropropoxy)phenyl)-4-oxothiazolidin-2-ylidene)-3-(2-methyl-4-(1-(3-(trifluoromethyl)phenyl)-1H-1,2,4-triazol-3-yl)phenyl)urea] | 0 to 80 | 50 to 100 | 50 to 100 |  |  |  |
| Cc1ccc(COCC(F)(F)F)c(N2C(=O)CS/C2=N\C(=O)Nc2ccc(-c3ncn(-c4ccc(C#N)cc4)n3)cc2F)c1 [Compound J289, (Z)-1-(4-(1-(4-Cyanophenyl)-1H-1,2,4-triazol-3-yl)-2-fluorophenyl)-3-(3-(5-methyl-2-((2,2,2-trifluoroethoxy)methyl)phenyl)-4-oxothiazolidin-2-ylidene)urea] | 0 to 80 | 50 to 100 | 50 to 100 |  |  |  |
| CCc1cc(-c2ncn(-c3ccc(OC(F)(F)F)cc3)n2)ccc1NC(=O)/N=C1\SCC(=O)N1c1cc(OC)ccc1C(C)C [Compound J71, (Z)-1-(2-Ethyl-4-(1-(4-(trifluoromethoxy)phenyl)-1H-1,2,4-triazol-3-yl)phenyl)-3-(3-(2-isopropyl-5-methoxyphenyl)-4-oxothiazolidin-2-ylidene)urea] | 0 to 80 | 50 to 100 | 50 to 100 |  |  |  |
